{
  "source": "paper PMC10897926",
  "about": "(Journal of Natural Products, 2024)",
  "key": {"[1]": {"test_system": "P. falciparum (strain W2) asexual blood stage parasites", "experiment": "microbe, parasite or virus in culture", "assay_type": "cell-based, Plasmodium falciparum"}, "P. vivax hypnozoites": {"test_system": "P. vivax hypnozoites", "experiment": "microbe, parasite or virus in culture", "assay_type": "cell-based, Plasmodium vivax"}, "[2]": {"test_system": "primary human hepatocytes"}, "P. vivax liver schizonts": {"test_system": "P. vivax liver schizonts", "experiment": "microbe, parasite or virus in culture", "assay_type": "cell-based, Plasmodium vivax"}, "in vitro [3]": {"experiment": "in vitro", "settings": "human"}, "in vitro [4]": {"experiment": "in vitro", "settings": "human", "remark": "listed apart in the source"}, "[5]": {"settings": "Plasmodium vivax, Hepatocyte, 288 h, read-out: P. vivax hypnozoite EC50"}, "[6]": {"settings": "Plasmodium vivax, read-out: P. vivax hypnozoite pEC50 (converted)"}, "[7]": {"settings": "Plasmodium vivax, Hepatocyte, 288 h, read-out: P. vivax schizont EC50"}, "[8]": {"settings": "Plasmodium vivax, read-out: P. vivax schizont pEC50 (converted)"}},
  "note": "Where two headings read alike, the source gives them in different places.",
  "data": [
    {"smiles": "CC(=O)OC[C@]12CCC(C)=C[C@H]1O[C@@H]1[C@H](O)[C@@H](OC(C)=O)[C@@]2(C)[C@]12CO2", "note": "[anguidine, diacetoxyscirpenol]", "values": [
      {"measurement": "EC50", "setting": "[1]; read-out: P. falciparum ABS (W2) EC50", "result": 6.16, "unit": "nM"},
      {"measurement": "HepG2 Tox pCC50", "setting": "HepG2 cells", "result": "27.5 (7.56 ± 0.08)"},
      {"measurement": "cytotoxicity (in words)", "setting": "HepG2 cells", "result": "cytotoxic"},
      {"measurement": "CC50", "setting": "HepG2 cells; read-out: HepG2 Tox CC50", "result": 27.5, "unit": "nM"},
      {"measurement": "P. vivax hypnozoite pEC50", "setting": "P. vivax hypnozoites", "result": "36.3 (7.44 ± 0.75)"},
      {"measurement": "EC50", "setting": "P. vivax hypnozoites; read-out: P. vivax hypnozoite EC50", "result": 36.3, "unit": "nM"},
      {"measurement": "PHH Tox pCC50", "setting": "[2]", "result": "380 (6.42 ± 0.31)"},
      {"measurement": "CC50", "setting": "[2]; read-out: PHH Tox CC50", "result": 380, "unit": "nM"},
      {"measurement": "EC50", "setting": "P. vivax liver schizonts; read-out: P. vivax schizont EC50", "result": 13.5, "unit": "nM"}
    ]},
    {"smiles": "COc1ccc(C[C@H](N)C(=O)N[C@H]2[C@@H](O)[C@H](n3cnc4c(N(C)C)ncnc43)O[C@@H]2CO)cc1", "note": "[puromycin]", "values": [
      {"measurement": "CC50", "setting": "in vitro [3]; HepG2 Tox CC50", "result": 398, "unit": "nM"},
      {"measurement": "CC50", "setting": "in vitro [3]; HepG2 Tox pCC50", "result": 398, "unit": "nM"},
      {"measurement": "CC50", "setting": "in vitro [4]; PHH Tox CC50", "result": 1740, "unit": "nM"},
      {"measurement": "CC50", "setting": "in vitro [4]; PHH Tox pCC50", "result": 1740, "unit": "nM"},
      {"measurement": "EC50", "setting": "P. vivax hypnozoites; [5]", "result": 776, "unit": "nM"},
      {"measurement": "EC50", "setting": "P. vivax hypnozoites; [6]", "result": 776, "unit": "nM"},
      {"measurement": "EC50", "setting": "P. vivax liver schizonts; [7]", "result": 2290, "unit": "nM"},
      {"measurement": "EC50", "setting": "P. vivax liver schizonts; [8]", "result": 2290, "unit": "nM"}
    ]},
    {"smiles": "CO[C@@H]1C[C@@H](C[C@H]2CC[C@H](C)[C@H]([C@@H](C)C(=O)O)O2)O[C@]2(O[C@](C)([C@H]3CC[C@@](C)([C@@H]4O[C@@H]([C@H]5O[C@@](O)(CO)[C@H](C)C[C@@H]5C)C[C@@H]4C)O3)C[C@H]2C)[C@@H]1C", "note": "[nigericin]", "values": [
      {"measurement": "CC50", "setting": "in vitro [4]; PHH Tox CC50", "result": "> 200", "unit": "nM"},
      {"measurement": "EC50", "setting": "P. vivax hypnozoites; [5]", "result": 12.3, "unit": "nM"},
      {"measurement": "EC50", "setting": "P. vivax hypnozoites; [6]", "result": 12.3, "unit": "nM"},
      {"measurement": "PHH Tox pCC50", "setting": "[2]; human", "result": ">200 (6.70 ± 0.00)"},
      {"measurement": "EC50", "setting": "P. vivax liver schizonts; [7]", "result": 5.13, "unit": "nM"},
      {"measurement": "EC50", "setting": "P. vivax liver schizonts; [8]", "result": 5.13, "unit": "nM"}
    ]},
    {"smiles": "C[C@H]1[C@@H](O)O[C@@H]2O[C@@]3(C)CC[C@H]4[C@H](C)CC[C@@H]1[C@@]24OO3", "note": "[dihydroartemisinin]", "values": [
      {"measurement": "EC50", "setting": "[1]; Plasmodium falciparum, W2, 72 h, read-out: P. falciparum ABS (W2) EC50", "result": 1.44, "unit": "nM"},
      {"measurement": "EC50", "setting": "[1]; Plasmodium falciparum, W2, 72 h, read-out: P. falciparum ABS (W2) pEC50 (converted)", "result": 1.45, "unit": "nM"}
    ]}
  ]
}
